Reference: patent US8242118B2, “Arylsulfonamide derivatives for use as CCR3 antagonists in the treatment of inflammatory and immunological disorders” (Axikin Pharmaceuticals Inc., priority 2001, dated 2012)
Structures can show the parent of a compound that is named as a salt.

melting point	Compound
160 °C	Cc1cc(C)cc(Oc2ccc(CO)cc2S(=O)(=O)N2CCNCC2)c1 (as salt: hydrochloride) [Example 16-1, [4-(3,5-dimethylphenoxy)-3-(1-piperazinylsulfonyl)phenyl]methanol hydrochloride]
278 to 280 °C	N#Cc1ccc(Oc2cc(Cl)cc(Cl)c2)c(S(=O)(=O)N2CCCNCC2)c1 (as salt: hydrochloride) [Example 12-1, 3-(1,4-diazepan-1-ylsulfonyl)-4-(3,5-dichlorophenoxy)benzonitrile hydrochloride]
82 °C	N#Cc1ccc(Sc2cc(Cl)cc(Cl)c2)c(S(=O)(=O)N2CCNCC2)c1 (as salt: hydrochloride) [Example 17-1, 4-[(3,5-dichlorophenyl)sulfanyl]-3-(1-piperazinylsulfonyl)benzonitrile hydrochloride]
121 °C	Cc1cc(C)cc(Oc2ccc(C(=O)NCCC(N)=O)cc2S(=O)(=O)N2CCNCC2)c1 (as salt: hydrochloride) [Example 22-2, N-[4-(3,5-dimethylphenoxy)-3-(1-piperazinylsulfonyl)benzoyl]-beta-alanineamide hydrochloride]
> 84 °C (dec.)	Cc1cc(C)cc(Oc2cc(Br)cc(S(=O)(=O)N3CCNCC3)c2)c1 (as salt: hydrochloride) [Example 24-1, 1-{[3-bromo-5-(3,5-dimethylphenoxy)phenyl]sulfonyl}piperazine hydrochloride]
197 to 199 °C	CN(C)C(=O)c1ccc(Oc2cc(Cl)cc(Cl)c2)c(S(=O)(=O)N2CCNCC2)c1 (as salt: hydrochloride) [Example 10-1, 4-(3,5-dichlorophenoxy)-N,N-dimethyl-3-(1-piperazinylsulfonyl)benzamide hydrochloride]
175 to 179 °C	Cc1cc(C)cc(Nc2ccc([N+](=O)[O-])cc2S(=O)(=O)N2CCNCC2)c1 (as salt: hydrochloride) [Example 3-1, N-(3,5-dimethyl-phenyl)-4-nitro-2-(1-piperazinylsulfonyl)aniline dihydrochloride]
220 °C	Cc1cc(C)cc(Oc2ccncc2S(=O)(=O)N2CCNCC2)c1 (as salt: hydrochloride) [Example 25-1, 1-{[4-(3,5-dimethylphenoxy)-3-pyridinyl]sulfonyl}piperazine hydrochloride]
225 to 227 °C	Cc1cc(C)cc(Sc2ccc([N+](=O)[O-])cc2S(=O)(=O)N2CCNCC2)c1 (as salt: hydrochloride) [Example 2-1, 1-({2-[(3,5-dimethylphenyl)-sulfanyl]-5-nitrophenyl}sulfonyl)piperazine hydrochloride]
264 to 266 °C	Cc1cc(C)cc(Oc2ccc([N+](=O)[O-])cc2S(=O)(=O)N2CCNCC2)c1 (as salt: hydrochloride) [Example 1-2, 1-{[2-(3,5-dimethylphenoxy)-5-nitrophenyl]sulfonyl}piperazine hydrochloride]
202 to 204 °C	Cc1cc(C)cc(Oc2ccc(Cl)cc2S(=O)(=O)N2CCNCC2)c1 (as salt: hydrochloride) [Example 5-2, 1-{[5-chloro-2-(3,5-dimethylphenoxy)phenyl]sulfonyl}piperazine hydrochloride]
163 °C	CN(c1cc(Cl)cc(Cl)c1)c1ccc(C#N)cc1S(=O)(=O)N1CCNCC1 (as salt: hydrochloride) [Example 21-1, 4-[(3,5-dichlorophenyl)(methyl)amino]-3-(1-piperazinylsulfonyl)benzonitrile hydrochloride]
164 to 165 °C	N#Cc1ccc(Oc2cc(Cl)cc(Cl)c2)c(S(=O)(=O)N2C[C@H]3CCCN[C@H]3C2)c1 [Example 13-6]
179 to 181 °C	N#Cc1ccc(Oc2cc(Cl)cc(Cl)c2)c(S(=O)(=O)N2CCNCC2)c1 [Example 6-4]
186 to 187 °C	N#Cc1ccc(Oc2cc(Cl)cc(Cl)c2)c(S(=O)(=O)N2CCC(N3CCCC3)CC2)c1 [Example 6-5]
217 to 218 °C	O=[N+]([O-])c1ccc(Oc2cc(Cl)cc(Cl)c2)c(S(=O)(=O)N2CCC(N3CCCC3)CC2)c1 [Example 4-1, 1-{[2-(3,5-dichlorophenoxy)-5-nitrophenyl]sulfonyl}-4-(1-pyrrolidinyl)piperidine]
120 °C	COC(=O)c1ccc(Oc2cc(C)cc(C)c2)c(S(=O)(=O)N2CCNCC2)c1 (as salt: hydrochloride) [Example 15-2, methyl 4-(3,5-dimethylphenoxy)-3-(1-piperazinylsulfonyl)benzoate hydrochloride]
284 °C	Cc1cc(C)cc(Oc2cc([N+](=O)[O-])ccc2S(=O)(=O)N2CCNCC2)c1 (as salt: hydrochloride) [Example 23-1, 1-{2-(3,5-dimethylphenoxy)-4-nitrophenylsulfonyl}piperazine hydrochloride]
101 °C	Cc1cc(C)cc(Oc2ccc(C(=O)NCCC#N)cc2S(=O)(=O)N2CCNCC2)c1 (as salt: hydrochloride) [Example 22-1, N-(2-cyanoethyl)-4-(3,5-dimethylphenoxy)-3-(1-piperazinylsulfonyl)benzamide hydrochloride]
258 °C	N#Cc1ccc(S(=O)(=O)c2cc(Cl)cc(Cl)c2)c(S(=O)(=O)N2CCNCC2)c1 (as salt: hydrochloride) [Example 18-1, 4-[(3,5-dichlorophenyl)sulfonyl]-3-(1-piperazinylsulfonyl)benzonitrile hydrochloride]
125 °C	Cc1cc(C)cc(Oc2ccc(-c3nnnn3CCC#N)cc2S(=O)(=O)N2CCNCC2)c1 (as salt: hydrochloride) [Example 22-3, 3-{5-[4-(3,5-dimethylphenoxy)-3-(1-piperazinylsulfonyl)phenyl]-1H-tetraazol-1-yl}propanenitrile hydrochloride]
120 to 125 °C	Cc1cc(C)cc(Oc2ccc([N+](=O)[O-])cc2S(=O)(=O)N2CCNCC2)c1.O=C(O)C(F)(F)F [Example 1-3]
219 °C	N#Cc1ccc([S+]([O-])c2cc(Cl)cc(Cl)c2)c(S(=O)(=O)N2CCNCC2)c1 (centres unmarked) (as salt: hydrochloride) [Example 19-1, 4-[(3,5-dichlorophenyl)sulfinyl]-3-(1-piperazinylsulfonyl)benzonitrile hydrochloride]
213 °C	Cc1cc(C)cc(Oc2ccc(-c3nnn[nH]3)cc2S(=O)(=O)N2CCNCC2)c1 (as salt: hydrochloride) [Example 22-4, 1-{[2-(3,5-dimethylphenoxy)-5-(1H-tetraazol-5-yl)phenyl]sulfonyl}piperazine hydrochloride]
262 °C	N#Cc1ccc(Oc2cc(Cl)cc(Cl)c2)c(S(=O)(=O)N2CCNCC2C(=O)O)c1 (centres unmarked) [Example 13-9]
214 to 220 °C	Cc1cc(C)cc(Oc2ccc(S(=O)(=O)N3CCNCC3)cc2S(=O)(=O)N2CCNCC2)c1.Cl.Cl
277 to 278 °C	Cl.N#Cc1ccc(Sc2cc(Cl)cc(Cl)c2)c(S(=O)(=O)N2CCCNCC2)c1 [Example 17-3]
175 to 177 °C	COc1ccc(Oc2cc(C)cc(C)c2)c(S(=O)(=O)N2CCNCC2)c1 (as salt: hydrochloride) [Example 6-2]
276 °C	N#Cc1ccc(Oc2cc(Cl)cc(Cl)c2)c(S(=O)(=O)N2CC[C@H](N)C2)c1 (as salt: hydrochloride) [Example 13-1, 1-{5-cyano-2-(3,5-dichlorophenoxy)phenylsulfonyl}-(3S)-aminopyrrolidine hydrochloride]
